Holding throughout (type): cell-based
Assay [1] concerns the target T1, SMARCA2 (Homo sapiens, UniProt P51531). Description: MSD SMARCA2 degradation in A549 cell line. To be noted: for Dmax: A549, A549 cells; for Dmax / DC50: 24 h; for DC50 / SMARCA2 MSD A549 degradation 24 h: Average Dmax %: A549 cells; for DC50: read-out: SMARCA2 MSD A549 degradation 24 h: Average external-Abs DC50. The procedure, abridged:
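SMARCA2 protein remaining after 24 h exposure of A549 cells (top concentration 1000 nM, 3-fold dilutions) was measured by MSD electrochemiluminescence immunoassay of cell lysates. Results are given as binned DC50 and maximal degradation (Dmax) codes.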

Assay [2] addresses T1, SMARCA2. Description: SMARCA2 Western blot degradation in MV4-11 cells. To be noted: for Dmax: MV4-11, MV4-11 cells, read-out: SMARCA2 MSD MV411 degradation 24 h: average Dmax %; for Dmax / DC50 / SMARCA2 MSD MV411 degradation 24 h: average Dmax %: 24 h; for DC50 / Selectivity in MV411 / SMARCA2 MSD MV411 degradation 24 h: average Dmax %: MV4-11 cells; for DC50: read-out: SMARCA2 MSD MV411 degradation 24 h: Mean external-Abs DC50; for Selectivity in MV411: SMARCA2/4 selectivity. Further details: SMARCA2/SMARCA4 protein degradation selectivity in MV4-11 cells; endogenous in cells; host or cells: MV4-11. For orientation: In western blotting, separated proteins are transferred to a membrane and probed.

In assay [3] the target is T2, SMARCA4 (Homo sapiens, UniProt P51532).
T2 construct: SMARCA2/SMARCA4 protein degradation selectivity in MV4-11 cells; endogenous in cells; host or cells: MV4-11
Briefly: SMARCA4 Western blot degradation in MV4-11 cells. To be noted: for Dmax: MV4-11, MV4-11 cells, read-out: SMARCA4 MSD MV411 degradation 24 h: average Dmax %; for Dmax / DC50: 24 h; for DC50 / SMARCA4 MSD MV411 degradation 24 h: average Dmax %: MV4-11 cells; for DC50: read-out: SMARCA4 MSD MV411 degradation 24 h: Mean external-Abs DC50. In outline: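 Fluorescent LI-COR imaging of Western blots quantified SMARCA2 and SMARCA4 protein remaining in MV4-11 cells after 24 h of compound treatment. β-actin was the loading control, and DC50, Dmax and SMARCA2/4 selectivity are given as letter-coded ranges.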

T2 sequence (P51532 whole entry): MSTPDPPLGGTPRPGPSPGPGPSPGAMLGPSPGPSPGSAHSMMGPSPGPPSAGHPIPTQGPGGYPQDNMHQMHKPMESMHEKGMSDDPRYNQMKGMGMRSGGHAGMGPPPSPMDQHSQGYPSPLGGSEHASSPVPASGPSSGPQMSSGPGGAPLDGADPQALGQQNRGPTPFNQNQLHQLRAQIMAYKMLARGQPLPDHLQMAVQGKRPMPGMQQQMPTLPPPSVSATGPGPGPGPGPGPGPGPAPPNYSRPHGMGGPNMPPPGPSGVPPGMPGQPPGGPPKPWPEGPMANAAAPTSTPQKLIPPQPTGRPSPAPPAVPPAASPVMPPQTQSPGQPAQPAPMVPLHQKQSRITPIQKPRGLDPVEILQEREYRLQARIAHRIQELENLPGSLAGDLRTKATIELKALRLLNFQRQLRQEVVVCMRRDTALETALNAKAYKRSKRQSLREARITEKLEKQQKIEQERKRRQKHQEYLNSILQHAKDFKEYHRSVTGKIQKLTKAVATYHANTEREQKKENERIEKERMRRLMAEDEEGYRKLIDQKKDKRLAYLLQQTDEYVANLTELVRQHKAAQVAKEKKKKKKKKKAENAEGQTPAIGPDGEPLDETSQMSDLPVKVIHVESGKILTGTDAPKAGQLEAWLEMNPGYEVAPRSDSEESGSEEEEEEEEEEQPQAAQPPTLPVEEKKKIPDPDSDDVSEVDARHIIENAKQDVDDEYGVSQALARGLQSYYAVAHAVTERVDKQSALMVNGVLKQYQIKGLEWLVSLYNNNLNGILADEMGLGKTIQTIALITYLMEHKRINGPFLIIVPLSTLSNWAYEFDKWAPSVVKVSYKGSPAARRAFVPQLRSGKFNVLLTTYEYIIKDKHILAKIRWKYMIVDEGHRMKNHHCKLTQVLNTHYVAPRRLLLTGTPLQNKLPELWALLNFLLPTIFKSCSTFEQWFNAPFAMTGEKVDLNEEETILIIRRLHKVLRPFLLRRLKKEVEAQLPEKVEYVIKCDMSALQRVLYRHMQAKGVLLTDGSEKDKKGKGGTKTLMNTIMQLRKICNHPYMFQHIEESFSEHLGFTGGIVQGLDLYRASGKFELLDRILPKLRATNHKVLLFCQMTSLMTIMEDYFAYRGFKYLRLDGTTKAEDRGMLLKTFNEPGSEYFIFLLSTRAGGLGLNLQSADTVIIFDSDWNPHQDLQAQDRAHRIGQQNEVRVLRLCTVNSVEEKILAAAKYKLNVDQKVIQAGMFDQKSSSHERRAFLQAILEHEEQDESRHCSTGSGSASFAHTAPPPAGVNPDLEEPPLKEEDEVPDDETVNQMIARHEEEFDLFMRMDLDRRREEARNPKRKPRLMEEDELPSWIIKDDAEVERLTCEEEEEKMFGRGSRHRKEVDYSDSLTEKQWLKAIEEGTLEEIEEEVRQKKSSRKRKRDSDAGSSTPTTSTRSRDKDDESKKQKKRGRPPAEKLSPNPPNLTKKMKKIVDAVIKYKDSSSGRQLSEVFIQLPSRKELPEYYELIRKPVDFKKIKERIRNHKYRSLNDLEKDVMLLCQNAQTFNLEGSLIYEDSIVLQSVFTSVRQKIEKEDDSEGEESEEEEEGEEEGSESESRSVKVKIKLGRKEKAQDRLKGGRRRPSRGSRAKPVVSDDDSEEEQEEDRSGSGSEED
T1 sequence (P51531 whole entry): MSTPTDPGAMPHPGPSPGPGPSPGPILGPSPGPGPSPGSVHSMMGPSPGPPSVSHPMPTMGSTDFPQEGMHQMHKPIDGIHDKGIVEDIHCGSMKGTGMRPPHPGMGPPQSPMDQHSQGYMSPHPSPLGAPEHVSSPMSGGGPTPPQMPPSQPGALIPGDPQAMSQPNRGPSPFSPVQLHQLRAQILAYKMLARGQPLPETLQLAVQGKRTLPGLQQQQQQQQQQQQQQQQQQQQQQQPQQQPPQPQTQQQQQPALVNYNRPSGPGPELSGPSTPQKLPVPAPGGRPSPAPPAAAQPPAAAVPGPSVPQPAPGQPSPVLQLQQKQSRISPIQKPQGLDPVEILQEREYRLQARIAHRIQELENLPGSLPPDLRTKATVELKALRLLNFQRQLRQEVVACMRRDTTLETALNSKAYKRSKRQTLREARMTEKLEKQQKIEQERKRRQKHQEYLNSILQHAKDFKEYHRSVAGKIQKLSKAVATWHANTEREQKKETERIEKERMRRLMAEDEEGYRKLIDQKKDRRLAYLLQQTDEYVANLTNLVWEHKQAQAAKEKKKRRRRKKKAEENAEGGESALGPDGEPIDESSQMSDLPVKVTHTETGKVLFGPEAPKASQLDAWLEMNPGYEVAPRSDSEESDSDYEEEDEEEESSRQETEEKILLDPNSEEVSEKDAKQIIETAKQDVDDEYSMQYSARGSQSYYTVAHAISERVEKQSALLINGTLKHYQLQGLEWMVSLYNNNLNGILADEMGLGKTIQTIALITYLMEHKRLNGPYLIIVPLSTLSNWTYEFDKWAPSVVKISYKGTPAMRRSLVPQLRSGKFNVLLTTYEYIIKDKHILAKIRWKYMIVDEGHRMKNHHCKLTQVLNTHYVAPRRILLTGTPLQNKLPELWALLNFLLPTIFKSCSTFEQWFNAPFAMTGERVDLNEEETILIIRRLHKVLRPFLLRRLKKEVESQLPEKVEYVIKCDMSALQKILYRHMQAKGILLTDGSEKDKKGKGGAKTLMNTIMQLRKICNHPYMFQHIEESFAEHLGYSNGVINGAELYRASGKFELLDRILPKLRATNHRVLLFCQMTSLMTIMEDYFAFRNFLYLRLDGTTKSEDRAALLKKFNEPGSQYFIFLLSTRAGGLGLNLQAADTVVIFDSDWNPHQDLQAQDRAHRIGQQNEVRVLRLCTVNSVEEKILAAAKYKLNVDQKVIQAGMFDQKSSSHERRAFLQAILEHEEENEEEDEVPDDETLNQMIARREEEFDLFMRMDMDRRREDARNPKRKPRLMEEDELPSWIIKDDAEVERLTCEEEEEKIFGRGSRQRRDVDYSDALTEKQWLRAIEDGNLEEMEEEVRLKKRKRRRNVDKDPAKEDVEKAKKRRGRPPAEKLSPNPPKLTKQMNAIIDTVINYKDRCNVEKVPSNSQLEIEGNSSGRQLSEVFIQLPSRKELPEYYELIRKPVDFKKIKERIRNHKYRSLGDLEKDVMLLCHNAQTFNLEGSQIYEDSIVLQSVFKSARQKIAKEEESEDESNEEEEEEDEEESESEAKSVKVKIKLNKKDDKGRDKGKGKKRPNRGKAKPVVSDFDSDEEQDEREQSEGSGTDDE

For `C#Cc1ccc(CNC(=O)[C@@H]2C[C@@H](O)CN2C(=O)[C@@H](NC(=O)CN2CCC(N3CC4(CC(N5CCN6c7cc(-c8ccccc8O)nnc7NC[C@H]6C5)C4)C3)CC2)C(C)(C)C)cc1` [I-252, (2S,4R)—N-(4-ethynylbenzyl)-4-hydroxy-1-((S)-2-(2-(4-(6-((S)-2-(2-hydroxyphenyl)-6a,7,9,10-tetrahydro-5H-pyrazino[1′,2′:4,5]pyrazino[2,3-c]pyridazin-8(6H)-yl)-2-azaspiro[3.3]heptan-2-yl)piperidin-1-yl)acetamido)-3,3-dimethylbutanoyl)pyrrolidine-2-carboxamide], the Dmax in assay [1], in assay [2] and in assay [3] was > 90% each time. Moreover, the DC50 (in general, the concentration at which degradation of the target reaches its halfway point) was 50 to 100 nM in assay [1], < 1 nM in assay [2] and 1 to 10 nM in assay [3]. Also, in assay [2], the “Selectivity in MV411” value was “D (D (<10 fold))”.
Regarding `Cc1ncsc1-c1ccc(CNC(=O)[C@@H]2C[C@@H](O)CN2C(=O)C(c2cc(OC[C@H]3CC[C@H](N4CCC(c5cnc(N6CCc7[nH]c8nnc(-c9ccccc9O)cc8c7[C@H]6C)nc5)CC4)CC3)no2)C(C)C)cc1` (single isomer, unassigned) [I-1], the Dmax in assay [1], in assay [2] and in assay [3] was > 90% each time. For the same compound, the half-maximal degradation concentration (DC50) is < 10 nM in assay [1], 1 to 10 nM in assay [2] and 1 to 10 nM in assay [3]. The “Selectivity in MV411” value in assay [2] is given as “D (D (<10 fold))”.
With `C#Cc1ccc(CNC(=O)[C@@H]2C[C@@H](O)CN2C(=O)[C@@H](NC(=O)N2CC3(CC(N4CCC(N5CCC(N6CCc7[nH]c8nnc(-c9ccccc9O)cc8c7[C@H]6C)CC5)CC4)C3)C2)C(C)(C)C)c(F)c1` [I-181], in assay [1], the Dmax (usually the largest share of the target that was removed) was > 90% and the DC50 was > 100 nM. Also, in assay [2], the Dmax is 50 to 70%, the DC50 was 10 to 100 nM and the “Selectivity in MV411” value is listed as “B (B (>100-500 fold))”. In assay [3], the Dmax was < 50% and the DC50 is > 100 nM.
For `C#Cc1cnc(CNC(=O)[C@@H]2C[C@@H](O)CN2C(=O)[C@@H](NC(=O)[C@H]2CC3(C2)C[C@H](N2CCC(N4CCC(N5CCN6c7cc(-c8ccccc8O)nnc7NC[C@H]6C5)CC4)CC2)C3)C(C)(C)C)c(OC)c1` (single isomer, unassigned) [I-330], in assay [1], the Dmax fell in the range of 50 to 70% and the DC50 was > 100 nM. In assay [2], the Dmax fell in the range of 50 to 70%, the DC50 was > 100 nM and the “Selectivity in MV411” value is recorded as “C (C (10-100 fold))”. Also, in assay [3], the Dmax was < 50% and the DC50 was > 100 nM.
In the case of `Cc1ncsc1-c1ccc(CNC(=O)[C@@H]2C[C@@H](O)CN2C(=O)[C@@H](NC(=O)N2CC3(CC(N4CCN(c5cnc(N6CCc7[nH]c8nnc(-c9ccccc9O)cc8c7[C@H]6C)nc5)CC4)C3)C2)C(C)(C)C)cc1` [I-82], in assay [1], the Dmax is > 90% and the DC50 is < 10 nM. Further, in assay [2], the Dmax was > 90%, the 50% degradation concentration (DC50) is 1 to 10 nM and the “Selectivity in MV411” value is “C (C (10-100 fold))”. Besides, in assay [3], the Dmax lay within 70 to 90% and the DC50 was in the range of 10 to 100 nM.
As to `C#Cc1ccc(CNC(=O)[C@@H]2C[C@@H](O)CN2C(=O)[C@@H](NC(=O)[C@H]2CC3(C2)C[C@H](N2CCC(N4CCC(N5CCN6c7cc(-c8ccccc8O)nnc7NC[C@H]6C5)CC4)CC2)C3)C(C)(C)C)c(OC)c1` (single isomer, unassigned) [I-232], in assay [1], the “SMARCA2 MSD A549 degradation 24 h: Average Dmax %” value is “A (A (>90% degradation))” and the DC50 is 10 to 50 nM. Also, in assay [2], the “SMARCA2 MSD MV411 degradation 24 h: average Dmax %” value is given as “A (A (>90% degradation))”, the DC50 lay in the range of 1 to 10 nM and the “Selectivity in MV411” value is given as “C (C (10-100 fold))”. For the same compound, in assay [3], the “SMARCA4 MSD MV411 degradation 24 h: average Dmax %” value is on record as “B (B (>70-90% degradation))” and the DC50 fell in the range of 10 to 100 nM.
`C#Cc1ccc(CNC(=O)[C@@H]2C[C@@H](O)CN2C(=O)[C@@H](NC(=O)N2CC3(CC(N4C[C@H]5CN(c6cnc(N7CCc8[nH]c9nnc(-c%10ccccc%10O)cc9c8[C@H]7C)nc6)C[C@H]5C4)C3)C2)C(C)(C)C)cc1` [I-171]: in assay [1], the maximal degradation (Dmax) is > 90% and the DC50 is > 100 nM. Further, in assay [2], the maximal degradation (Dmax) fell in the range of 50 to 70%, the 50% degradation concentration (DC50) is 10 to 100 nM and the “Selectivity in MV411” value was “C (C (10-100 fold))”. For the same compound, in assay [3], the Dmax is < 50% and the DC50 was > 100 nM.
In the case of `Cc1ncsc1-c1ccc(CNC(=O)[C@@H]2C[C@@H](O)CN2C(=O)[C@@H](NC(=O)[C@H]2CC3(CC[C@H](N4CCN(c5cnc(N6CCc7[nH]c8nnc(-c9ccccc9O)cc8c7[C@H]6C)nc5)CC4)CC3)C2)C(C)(C)C)cc1` (single isomer, unassigned) [I-78], in assay [1], the Dmax is > 90% and the DC50 was 10 to 50 nM. Also, in assay [2], the Dmax lay within 70 to 90%, the DC50 is 10 to 100 nM and the “Selectivity in MV411” value is “B (B (>100-500 fold))”. In assay [3], the maximal degradation (Dmax) was < 50% and the DC50 is > 100 nM.
Take `C#Cc1ccc(CNC(=O)[C@@H]2C[C@@H](O)CN2C(=O)[C@@H](NC(=O)[C@H]2CC3(C2)C[C@H](N2CCC(N4CCC(N5CCN6c7cc(-c8ccccc8O)nnc7NC[C@H]6C5)CC4)CC2)C3)C(C)(C)C)c(O)c1` (stereo partly drawn) [I-242]: the DC50 in assay [1] was in the range of 50 to 100 nM; in assay [2] it was 1 to 10 nM; in assay [3], 10 to 100 nM. Besides, the “Selectivity in MV411” value in assay [2] is given as “C (C (10-100 fold))”.
As for `Cc1ncsc1-c1ccc(CNC(=O)[C@@H]2C[C@@H](O)CN2C(=O)[C@@H](NC(=O)C2CC3(C2)CC(N2CCC(N4CCC(N5CCN6c7cc(-c8ccccc8O)nnc7NC[C@H]6C5)CC4)CC2)C3)C(C)(C)C)cc1` (stereo partly drawn) [I-75], the results for the Dmax in assay [1], in assay [2] and in assay [3] were > 90%, 70 to 90% and < 50%, respectively. The values for the DC50 in assay [1], in assay [2] and in assay [3] were > 100 nM, 1 to 10 nM and > 100 nM, respectively. The “Selectivity in MV411” value in assay [2] is given as “A (A (>500 fold))”.
On to `Cc1ncsc1-c1ccc(CNC(=O)[C@@H]2C[C@@H](O)CN2C(=O)C(c2cc(OC[C@H]3CC[C@H](N4CCC(c5cnc(N6CCc7[nH]c8nnc(-c9ccccc9O)cc8c7[C@@H]6C)nc5)CC4)CC3)no2)C(C)C)cc1` (single isomer, unassigned) [I-15], for which, in assay [1], the Dmax was > 90% and the DC50 lay within 10 to 50 nM. Moreover, in assay [2], the Dmax is > 90%, the DC50 lay in the range of 1 to 10 nM and the “Selectivity in MV411” value is reported as “C (C (10-100 fold))”. Moreover, in assay [3], the Dmax is > 90% and the DC50 was 10 to 100 nM.
As for `Cc1ncsc1-c1ccc(CNC(=O)[C@@H]2C[C@@H](O)CN2C(=O)[C@@H](NC(=O)[C@H]2CC3(CC[C@H](N4CCN(c5ccnc(N6CCc7[nH]c8nnc(-c9ccccc9O)cc8c7[C@H]6C)n5)CC4)CC3)C2)C(C)(C)C)cc1` (single isomer, unassigned) [I-81], in assay [1], the “SMARCA2 MSD A549 degradation 24 h: Average Dmax %” value is on record as “A (A (>90% degradation))” and the DC50 fell in the range of 10 to 50 nM. In addition, in assay [2], the “SMARCA2 MSD MV411 degradation 24 h: average Dmax %” value was “A (A (>90% degradation))”, the DC50 was 1 to 10 nM and the “Selectivity in MV411” value is on record as “C (C (10-100 fold))”. Also, in assay [3], the “SMARCA4 MSD MV411 degradation 24 h: average Dmax %” value is listed as “B (B (>70-90% degradation))” and the DC50 lay within 10 to 100 nM.
As to `C#Cc1ccc([C@H](C)NC(=O)[C@@H]2C[C@@H](O)CN2C(=O)[C@@H](NC(=O)N2CC3(CC(N4CCC(c5cnc(N6CCc7[nH]c8nnc(-c9ccccc9O)cc8c7[C@H]6C)cn5)CC4)C3)C2)C(C)(C)C)cc1` [I-250], in assay [1], the Dmax is > 90% and the DC50 was in the range of 10 to 50 nM. In assay [2], the Dmax was > 90%, the DC50 lay within 10 to 100 nM and the “Selectivity in MV411” value is reported as “C (C (10-100 fold))”. In assay [3], the Dmax fell in the range of 70 to 90% and the DC50 was > 100 nM.
Take `C#Cc1ccc(CNC(=O)[C@@H]2C[C@@H](O)CN2C(=O)[C@H](NC(=O)[C@H]2CCC3(CC2)C[C@H](N2CCC(c4cnc(N5CCN6c7cc(-c8ccccc8O)nnc7NC[C@H]6C5)nc4)CC2)C3)C(C)(C)CCO)cc1` (single isomer, unassigned) [I-248]: in assay [1], the maximal degradation (Dmax) is < 50% and the DC50 was > 100 nM. In addition, in assay [2], the Dmax was < 50%, the DC50 is > 100 nM and the “Selectivity in MV411” value is listed as “D (D (<10 fold))”. Besides, in assay [3], the Dmax is < 50% and the DC50 was > 100 nM.
With `Cc1ncsc1-c1ccc(CNC(=O)[C@@H]2C[C@@H](O)CN2C(=O)[C@@H](NC(=O)[C@H]2CC3(C2)C[C@H](N2CCN(c4cnc(N5CCN6c7cc(-c8ccccc8O)nnc7NC[C@H]6C5)nc4)CC2)C3)C(C)(C)C)cc1` (stereo partly drawn) [I-19], in assay [1], the “SMARCA2 MSD A549 degradation 24 h: Average Dmax %” value is “A (A (>90% degradation))” and the DC50 lay within 10 to 50 nM. Besides, in assay [2], the “SMARCA2 MSD MV411 degradation 24 h: average Dmax %” value is “A (A (>90% degradation))”, the DC50 lay in the range of 1 to 10 nM and the “Selectivity in MV411” value is listed as “C (C (10-100 fold))”. Moreover, in assay [3], the “SMARCA4 MSD MV411 degradation 24 h: average Dmax %” value was “B (B (>70-90% degradation))” and the DC50 lay in the range of 10 to 100 nM.

The values are drawn from US20250170248A1, “SMARCA DEGRADERS AND USES THEREOF” (Kymera Therapeutics, Inc., priority 2021, published 2025).
